Data reported in the NIST ThermoML archive (doi:10.1016/j.jct.2004.07.004).
± gives the expanded uncertainty stated by the source.

Test: mn = molality of the nth substance listed, in mol/kg
Details: 100 kPa, Liquid

CC(C)C[C@H](NC(=O)[C@@H]1CCCN1)C(=O)O [proline-leucine] + O
mass density [kg/m3]
Details	283.15 K	288.15 K	293.15 K	298.15 K	303.15 K	308.15 K
m1 = 0.00191	–	–	998.299 ± 0.071	–	–	994.122 ± 0.073
m1 = 0.0025	–	999.209 ± 0.07	998.324 ± 0.071	997.166 ± 0.071	–	994.156 ± 0.073
m1 = 0.00255	–	–	–	–	995.771 ± 0.072	–
m1 = 0.0035	999.851 ± 0.07	999.261 ± 0.07	998.368 ± 0.071	997.215 ± 0.071	–	994.198 ± 0.08
m1 = 0.00399	–	999.283 ± 0.07	998.394 ± 0.071	–	–	–
m1 = 0.0045	999.901 ± 0.07	999.303 ± 0.07	998.416 ± 0.071	997.251 ± 0.071	995.856 ± 0.072	994.246 ± 0.073
m1 = 0.00505	999.956 ± 0.07	999.356 ± 0.07	998.452 ± 0.071	–	–	994.278 ± 0.073
m1 = 0.00549	–	999.353 ± 0.07	998.462 ± 0.071	997.3 ± 0.071	995.925 ± 0.072	994.294 ± 0.073
m1 = 0.00602	1000 ± 0.07	999.407 ± 0.07	998.502 ± 0.071	997.35 ± 0.071	995.943 ± 0.072	994.322 ± 0.073
m1 = 0.00649	–	–	998.533 ± 0.071	997.374 ± 0.071	995.96 ± 0.072	994.345 ± 0.073
m1 = 0.00709	1000.06 ± 0.07	999.445 ± 0.07	998.552 ± 0.07	997.381 ± 0.071	–	–
m1 = 0.00748	–	999.48 ± 0.07	998.581 ± 0.071	997.416 ± 0.071	995.999 ± 0.072	994.392 ± 0.073
m1 = 0.00776	1000.09 ± 0.07	–	–	–	–	–
m1 = 0.00833	–	999.516 ± 0.07	998.63 ± 0.07	–	996.05 ± 0.072	994.433 ± 0.073
m1 = 0.00849	–	999.544 ± 0.07	998.633 ± 0.07	997.468 ± 0.071	996.044 ± 0.073	994.436 ± 0.073
m1 = 0.00904	1000.16 ± 0.07	999.542 ± 0.07	998.644 ± 0.07	–	–	–
m1 = 0.00949	–	999.594 ± 0.07	998.69 ± 0.07	997.521 ± 0.071	996.091 ± 0.072	–
m1 = 0.01004	–	999.608 ± 0.07	998.704 ± 0.07	997.541 ± 0.071	996.128 ± 0.072	994.51 ± 0.073
m1 = 0.0105	1000.24 ± 0.07	999.641 ± 0.07	998.74 ± 0.07	997.562 ± 0.071	996.136 ± 0.072	–
m1 = 0.01084	1000.25 ± 0.07	999.633 ± 0.07	–	997.57 ± 0.071	–	994.545 ± 0.073
m1 = 0.01148	1000.3 ± 0.07	999.691 ± 0.07	998.787 ± 0.07	997.614 ± 0.071	996.183 ± 0.072	–
